According to patent publication US8507548B2, “Method for treating addiction using quercetin-containing compositions” (Quercegen Pharmaceuticals LLC, priority 2008, dated 2013):

Experiments:
neuron cells = assay: re-uptake of neurotransmitters by neuron cells; assay type: cell-based
[1] = test system: withdrawal symptoms accompanied with addiction; settings: e.g., alcohol abstinence-induced anxiety and convulsion; Joshi et al., J. Med. Food 2005; cited from earlier work

## O=c1c(O)c(-c2ccc(O)c(O)c2)oc2cc(O)cc(O)c12 [Quercetin]
Neuron cells
  re-uptake of neurotransmitters by neuron cells: block re-uptake of neurotransmitters by neuron cells
[1]
  effect on withdrawal symptoms accompanied with addiction: alleviate withdrawal symptoms
